Assays:
Conditions in all cases: 250 g/ha, evaluated after 13 days, five-point scale
[1] = test system: Amaranthus retoflexus (AMARE); assay: Post-emergence herbicidal glasshouse test; format: in vivo
AMAPA [2] = assay: Post-emergence herbicidal glasshouse test; format: in vivo, Amaranthus tuberculatus
[3] = test system: Echinochloa crus-galli (ECHCG); assay: Post-emergence herbicidal glasshouse test; format: in vivo
[4] = test system: Ipomoea hederacea (IPOHE); assay: Post-emergence herbicidal glasshouse test; format: in vivo
Setaria faberi (SETFA) [5] = assay: Post-emergence herbicidal glasshouse test; format: in vivo
[6] = test system: Amaranthus retoflexus (AMARE); assay: Pre-emergence herbicidal glasshouse test; format: in vivo
AMAPA [7] = assay: Pre-emergence herbicidal glasshouse test; format: in vivo, Amaranthus tuberculatus
[8] = test system: Echinochloa crus-galli (ECHCG); assay: Pre-emergence herbicidal glasshouse test; format: in vivo
[9] = test system: Ipomoea hederacea (IPOHE); assay: Pre-emergence herbicidal glasshouse test; format: in vivo
Setaria faberi (SETFA) [10] = assay: Pre-emergence herbicidal glasshouse test; format: in vivo

Row | Structure (SMILES) | percentage damage caused to the plant, AMARE [1] | percentage damage caused to the plant, AMAPA (AMAPA [2]) | percentage damage caused to the plant, ECHCG [3] | percentage damage caused to the plant, IPOHE [4] | percentage damage caused to the plant, SETFA (Setaria faberi (SETFA) [5]) | percentage damage caused to the plant, AMARE [6] | percentage damage caused to the plant, AMAPA (AMAPA [7]) | percentage damage caused to the plant, ECHCG [8] | percentage damage caused to the plant, IPOHE [9] | percentage damage caused to the plant, SETFA (Setaria faberi (SETFA) [10])
1 | FC(F)(Cl)c1ncc2c(Oc3ncc(Cl)cn3)ccc(Cl)c2n1 [Compound 1.044] | 3 (3=41-60%) | 3 (3=41-60%) | 1 (1=0-20%) | 2 (2=21-40%) | 3 (3=41-60%) | 3 (3=41-60%) | 5 (5=81-100%) | 2 (2=21-40%) | 1 (1=0-20%) | 5 (5=81-100%)
2 | Cc1ccc(Oc2ncc(Br)cn2)c2cnc(C(F)(F)Cl)nc12 [Compound 1.047] | 2 (2=21-40%) | 2 (2=21-40%) | 1 (1=0-20%) | 2 (2=21-40%) | 1 (1=0-20%) | 2 (2=21-40%) | 2 (2=21-40%) | 1 (1=0-20%) | 1 (1=0-20%) | 1 (1=0-20%)
3 | CCOc1ncc2c(Oc3ncc(Cl)cn3)cccc2n1 [Compound 1.063, 5-(5-chloropyrimidin-2-yl)oxy-2-ethoxy-quinazoline] | 5 (5=81-100%) | 5 (5=81-100%) | 5 (5=81-100%) | 5 (5=81-100%) | 4 (4=61-80%) | 5 (5=81-100%) | 5 (5=81-100%) | 5 (5=81-100%) | 5 (5=81-100%) | 4 (4=61-80%)
4 | Cc1nc(C(F)(F)F)nc2c(C#N)ccc(Oc3ncc(Cl)cn3)c12 [Compound 1.064] | 1 (1=0-20%) | 1 (1=0-20%) | 1 (1=0-20%) | 1 (1=0-20%) | 1 (1=0-20%) | 1 (1=0-20%) | 1 (1=0-20%) | 1 (1=0-20%) | 1 (1=0-20%) | 1 (1=0-20%)
5 | Cc1ccc(Oc2ncc(Cl)cn2)c2cnc(C(F)(F)F)nc12 [Compound 1.068] | 3 (3=41-60%) | 2 (2=21-40%) | 1 (1=0-20%) | 2 (2=21-40%) | 1 (1=0-20%) | 5 (5=81-100%) | 5 (5=81-100%) | 3 (3=41-60%) | 2 (2=21-40%) | 3 (3=41-60%)
6 | Cc1nc(C(F)(F)Cl)nc2cccc(Oc3ncc(Cl)cn3)c12 [Compound 1.069] | 3 (3=41-60%) | 3 (3=41-60%) | 2 (2=21-40%) | 2 (2=21-40%) | 2 (2=21-40%) | 5 (5=81-100%) | 5 (5=81-100%) | 2 (2=21-40%) | 1 (1=0-20%) | 5 (5=81-100%)
7 | Fc1cnc(Oc2cccc3nc(C(F)(F)F)ncc23)nc1 [Compound 1.070] | 4 (4=61-80%) | 4 (4=61-80%) | 4 (4=61-80%) | 4 (4=61-80%) | 4 (4=61-80%) | 5 (5=81-100%) | 5 (5=81-100%) | 5 (5=81-100%) | 5 (5=81-100%) | 5 (5=81-100%)
8 | FC(F)(F)c1ncc2c(Oc3ncc(Cl)cn3)ccc(Br)c2n1 [Compound 1.071] | 3 (3=41-60%) | 2 (2=21-40%) | 1 (1=0-20%) | 2 (2=21-40%) | 1 (1=0-20%) | 3 (3=41-60%) | 5 (5=81-100%) | 3 (3=41-60%) | 1 (1=0-20%) | 4 (4=61-80%)
9 | Cc1nc(C(F)(F)F)nc2c(Br)ccc(Oc3ncc(Cl)cn3)c12 [Compound 1.072] | 1 (1=0-20%) | 1 (1=0-20%) | 1 (1=0-20%) | 1 (1=0-20%) | 1 (1=0-20%) | 1 (1=0-20%) | 2 (2=21-40%) | 1 (1=0-20%) | 1 (1=0-20%) | 1 (1=0-20%)
10 | Cc1ccc(Oc2ncc(Cl)cn2)c2c(C)nc(C(F)(F)F)nc12 [Compound 1.073] | 1 (1=0-20%) | 1 (1=0-20%) | 1 (1=0-20%) | 1 (1=0-20%) | 1 (1=0-20%) | 1 (1=0-20%) | 1 (1=0-20%) | 1 (1=0-20%) | 1 (1=0-20%) | 1 (1=0-20%)
